Results as given in patent US20110280913A1, “Methods and Compositions for Delivering Therapeutic Agents in the Treatment of B-Cell Related Disorders” (THE OHIO STATE UNIVERSITY, priority 2008, published 2011).

How the values were obtained:
CD23 = test: Immunophenotyping (flow cytometry) of CD23 on CLL cells; format: cell-based, human; details: 0.5 μM, 48 h, vs vehicle, n=6, P=0.001
Experimental: (§1) Immunophenotyping was performed to determine the percentage and mean fluorescence intensity of CD20, CD19, CD5, CD23, CD38, CD3, and CD52 on CLL cells relative to a specific isotype control. Cells (10^6) were washed in PBS, stained with fluorochrome-labeled antibodies at 4° C., then rinsed in PBS and analyzed by flow cytometry (EPICS-XL; Beckman Coulter, Fullerton, Calif.). A total of 10,000 events were collected and analyzed using Windows Multiple Document Interface for Flow Cytometry (WinMDI). CD20, CD19, CD3, CD5, CD23, and CD38 antibodies were obtained from BD Biosciences (San Jose, Calif.), and CD52 antibody was obtained from Serotec (Raleigh, N.C.).

CD5 = test: Immunophenotyping (flow cytometry) of CD5 on CLL cells; format: cell-based, human; details: 0.5 μM, vs vehicle
Experimental: as §1

CD52 = test: Immunophenotyping (flow cytometry) of CD52 on CLL cells; format: cell-based, human; details: 0.5 μM, vs vehicle, data not shown
Experimental: as §1

CD20 mRNA = test: Real-time RT-PCR of CD20 mRNA in CLL cells; format: cell-based, human; details: 24 and 48 hours, compared with vehicle control
Experimental: RNA was extracted with TRIzol reagent (Invitrogen) according to the manufacturer's directions and converted to cDNA with the SuperScript First-Strand Synthesis System (Invitrogen). Real-time polymerase chain reaction was performed using custom-designed primers for CD20 (ID: Hs00544819_m1; Applied Biosystems, Foster City, Calif.) and an ABI Prism 7700 sequence detection system (Applied Biosystems). The expression of CD20 relative to an internal control gene was calculated by plotting the Ct (cycle number), and the average relative expression for each group was determined using the comparative method (2^−Ct).^24
The inventors herein then determined whether the mechanism by which lenalidomide down-regulates CD20 antigen was via decreased transcription. CD20 mRNA expression level was assessed by real-time reverse-transcribed polymerase chain reaction (RT-PCR) in lenalidomide- and vehicle-treated CLL cells at 24 and 48 hours.

CD20 = test: Immunoblot of total CD20 protein; format: cell-based, human; details: 48 and 72 hours, relative to vehicle control
Experimental: Immunoblot assays were performed with the multiple antigen detection immunoblotting method as described previously.^23 Whole-cell lysates were prepared and stored in −80° C. Protein concentration was quantified by the bicinchoninic acid method (Pierce Chemical, Rockford, Ill.). Protein samples (50 μg) were separated by sodium dodecyl sulfate-polyacrylamide gel electrophoresis (12%) and transferred to 0.2-μm nitrocellulose membranes (Whatman Schleicher & Schuell, Keene, N.H.) and incubated with goat antihuman CD20 (Santa Cruz Biotechnology, Santa Cruz, Calif.) or rabbit antiactin (Cell Signaling Technology, Danvers, Mass.) antibodies. Horseradish peroxidase-conjugated goat anti-rabbit IgG (Bio-Rad, Hercules, Calif.) was used as secondary antibody Immune complexes were detected using chemiluminescent substrate (SuperSignal; Pierce Chemical).

CLL cells = test: Immunoliposome FAM-ODN uptake studies; format: cell-based, human
Experimental: An ethanol dilution method was modified to prepare the FAM-ODN-loaded immunoliposomes.^25 Briefly, protamine sulfate in citric acid (20 mM, pH 4) was mixed with lipids (DC-Chol/Egg-PC/PEG-DSPE [molar ratio]=28.0:70.0:2.0) at a mass ratio of lipids:protamine=12.5:0.3, followed by addition of ODN in citric acid (20 mM, pH 4) at ODN/lipids/protamine (weight ratio)=1:12.5:0.3. The complexes were then dialyzed against citric acid (20 mM, pH 4) for 1 hour and then further dialyzed against N-2-hydroxyethylpiperazine-N′-2-ethanesulfonic acid-buffered saline (145 mM NaCl, 20 mM N-2-hydroxyethylpiperazine-N′-2-ethanesulfonic acid, pH 7.4) overnight, using a DispoDialyzer (Spectrum Labs, Rancho Dominguez, Calif.) with a molecular weight cutoff of 10,000 Da. Liposome size distribution was analyzed by dynamic light scattering on a NICOMP Particle Sizer Model 370 (Particle Sizing Systems, Santa Barbara, Calif.).
A postinsertion method was adopted to incorporate antibody ligands into preformed liposomes containing FAM-ODN. In this method, rituximab, trastuzumab (anti-Her2), or alemtuzumab (anti-CD52) was incubated with 20× Traut reagent (2 hours at room temperature) to yield sulfhydryl-modified antibodies. The anti-CD20—sulfhydryl was then incubated with micelles of Mal-PEG-DSPE at a molar ratio of 1:10 and then incubated with FAM-ODN loaded liposomes for 1 hour at 37° C. Targeted liposomes with antibody-PEG-DSPE-to-lipid ratios of 1:1000 ([…]) were thus prepared.
CLL cells were incubated at 10^6 cells/mL for 1 hour at 37° C. with rituximab-, trastuzumab-, or alemtuzumab-coated immunoliposome-FAM-ODN (CODN=1.0 μM) and washed twice in PBS. Cells were kept in culture in RPMI 10% fetal bovine serum for an additional 1, 4, and 24 hours, respectively, in the presence of either 0.5 μM lenalidomide or vehicle control. […] Cells were visualized on a Nikon fluorescence microscope (magnification ×200).
The inventors herein used a FAM-ODN formulated into rituximab-coated immunoliposomes. […] Cells were visualized on a Nikon fluorescence microscope (magnification, ×200).

NK cells = test: CD56 and CD16 surface expression on purified NK cells (flow); format: cell-based, human; details: lenalidomide 72 hours
Experimental: FIG. 4B: Lenalidomide treatment increases percentage of CD56+/[…] cells. Negatively selected NK cells were incubated with Lenalidomide (0.5 μM) or vehicle control. CD56 and CD16 surface expression was analyzed by flow after 72 h of treatment. The graphs show, respectively, percentage change CD56+/CD16+ (left panel, N=12, p<0.01) and CD56−/CD16+ (right panel, N=12, p<0.005) double positive cells.
For ADCC experiments, CD56^+ and CD19^+ cells were negatively purified from whole blood obtained from either healthy volunteers or CLL subjects by magnetic-activated cell sorting according to the manufacturer's recommendations (MiniMACS; Miltenyi Biotec, Auburn, Calif.). The purity of enriched populations was always greater than 95% of the total yield as detected by CD19 and CD3 staining.

human monocytes = test: Antibody-dependent cellular phagocytosis by human monocytes; format: cell-based; details: data not shown
[1] = rituximab-coated immunoliposome-FAM-ODN, 0.5 μM lenalidomide

Nc1cccc2c1CN(C1CCC(=O)NC1=O)C2=O (centres unmarked) [lenalidomide]
CD23 activation marker level on CLL cells (CD23): increased levels
CD5 expression on CLL cells (CD5): no changes
CD52 expression on CLL cells (CD52): no changes
CD20 mRNA transcription (CD20 mRNA): very modest increase
total level of CD20 protein (CD20): no variation
internalization of fluorochrome-labeled ODN from rituximab-coated immunoliposomes (CLL cells; 0.5 μM lenalidomide after 1 h immunoliposome-FAM-ODN (1.0 μM), N=3): enhanced internalization
earliest time of enhanced ODN internalization (CLL cells; [1]): 1 h
time of maximum effect on ODN internalization (CLL cells; [1]): 24 h
percentage of CDC16+/CD56− cells (NK cells; N=12, P<0.005 (vehicle 35% ±13%)): 20% ±11%
percentage of CD16+/CD56+ cells (NK cells; N=12, P<0.01 (vehicle 18% ±10%)): 31% ±14%
antibody-dependent cellular phagocytosis (human monocytes): not modulated
